Literature values as cited in patent US9642799B2, “Crystalline 6-(2-((4-amino-3-(3-hydroxyphenyl)-1H-pyrazolo[3,4-D]pyrimidin-1-yl)methyl)-3-(2-chlorobenzyl)-4-0X0-3,4-dihydroquinazolin-5-yl)-N,N-bis(2-methoxyethyl)hex-5-ynamide” (Respivert Limited, priority 2012, dated 2017).

What was measured:
[1] = tested on: ovalbumin-sensitized, ovalbumin-challenged mice
mice = conditions: stimulated by TNFα
murine model = conditions: administered by aerosolisation
[2] = elicited by either LPS or cigarette smoke

Compound | airways hyper-responsiveness, IgE release, pro-inflammatory cytokine expression, inflammatory cell accumulation into the lung and vascular permeability [1] | neutrophil accumulation in the lungs and neutrophil function (mice) | pulmonary eosinophilia, interleukin-13, mucin accumulation and airways hyperesponsiveness (murine model) | pulmonary neutrophilia [2]
Cc1ccccc1-n1c(Cn2cnc3c(N)ncnc32)nc2cccc(C)c2c1=O [IC-87114] | found to inhibit | lowered | – | –
Nc1nc(N)c2nc(-c3cccc(O)c3)c(-c3cccc(O)c3)nc2n1 [TG100-115] | – | – | reported to inhibit | able to inhibit
